According to patent US10517294B2, “Dihydrothiophene derivatives as insecticidal compounds” (priority 2012, dated 2019):

What was measured:
Type in all cases: in vivo
[1] = test system: Plutella xylostella; test: Plutella xylostella (diamond back moth), artificial diet; details: 120 h, application rate 200 ppm, L2 larvae on artificial diet, 5 days after infestation, read-out: control (at least one of mortality, growth inhibition)
Description: 24-well microtiter plates with artificial diet were treated with aqueous test solutions prepared from 10′000 ppm DMSO stock solutions by pipetting. After drying, the plates were infested with L2 larvae (10 to 15 per well). The samples were assessed for mortality and growth inhibition 5 days after infestation. Control of Plutella xyllostella by a test sample is noted when at least one of mortality and growth inhibition is better than the untreated sample.

[2] = test system: Tetranychus urticae; test: Tetranychus urticae (two-spotted spider mite), sprayed bean leaf discs; details: foliar, 192 h, application rate 200 ppm, mixed ages on bean leaf discs, 8 days after infestation, read-out: control (mortality, mobile stages)
Description: Bean leaf discs on agar in 24-well microtiter plates were sprayed with aqueous test solutions prepared from 10′000 ppm DMSO stock solutions. After drying the leaf discs were infested with a mite population of mixed ages. The samples were assessed for mortality (mobile stages) 8 days after infestation.

[3] = test system: Diabrotica balteata; test: Diabrotica balteata (corn root worm), artificial diet; details: 120 h, application rate 200 ppm, L2 larvae on artificial diet, 5 days after infestation, read-out: control (at least one of mortality, growth inhibition)
Description: 24-well microtiter plates with artificial diet were treated with aqueous test solutions prepared from 10′000 ppm DMSO stock solutions by pipetting. After drying, the plates were infested with L2 larvae (6 to 10 per well). The samples were assessed for mortality and growth inhibition 5 days after infestation. Control of Diabrotica balteata by a test sample is noted when at least one of mortality and growth inhibition is better than the untreated sample.

[4] = test system: Thrips tabaci; test: Thrips tabaci (onion thrips), sprayed sunflower leaf discs; details: foliar, 144 h, application rate 200 ppm, mixed ages on sunflower leaf discs, 6 days after infestation, read-out: control (mortality)
Description: Sunflower leaf discs were placed on agar in 24-well microtiter plates and sprayed with aqueous test solutions prepared from 10′000 ppm DMSO stock solutions. After drying the leaf discs were infested with a thrips population of mixed ages. The samples were assessed for mortality 6 days after infestation.

[5] = test system: Euschistus heros; test: Euschistus heros (neotropical brown stink bug), sprayed soybean plants; details: 120 h, application rate 50 ppm, N2 nymphs on sprayed soybean plants, 5 days after infestation, read-out: control (at least one of mortality, growth inhibition)
Description: Two weeks old soybean plants were sprayed in a turn table spray chamber with the diluted spray solutions. After drying 2 soybean seeds were added and plants were infested with 10 N2 nymphs of the neotropical brown stink bug Euschistus heros in plastic test boxes. The samples were assessed for mortality and growth inhibition 5 days after infestation. Control of Euschistus heros by a test sample is noted when at least one of mortality and growth inhibition is better than the untreated sample.

[6] = test system: Spodoptera littoralis; test: Spodoptera littoralis (Egyptian cotton leaf worm), sprayed cotton leaf discs; details: foliar, 72 h, application rate 200 ppm, L1 larvae on cotton leaf discs, 3 days after infestation, read-out: control (at least one of mortality, anti-feedant effect, growth inhibition)
Description: Cotton leaf discs were placed on agar in 24-well microtiter plates and sprayed with aqueous test solutions prepared from 10′000 ppm DMSO stock solutions. After drying the leaf discs were infested with five L1 larvae. The samples were assessed for mortality, anti-feedant effect, and growth inhibition 3 days after infestation. Control of Spodoptera littoralis by a test sample is noted when at least one of mortality, anti-feedant effect, and growth inhibition is better than the untreated sample.

[7] = test system: Heliothis virescens; test: Heliothis virescens (tobacco budworm), eggs on artificial diet; details: application rate 200 ppm, eggs 0-24 h old on artificial diet, 5 days after infestation, read-out: control (at least one of egg mortality, larval mortality, growth inhibition)
Description: Eggs (0-24 h old) were placed in 24-well microtiter plates on artificial diet and treated with aqueous test solutions prepared from 10′000 ppm DMSO stock solutions by pipetting. The samples were assessed for egg mortality, larval mortality and growth inhibition 5 days after infestation. Control of Heliothis virescens by a test sample is noted when at least one of egg mortality, larval mortality and growth inhibition is better than the untreated sample.

Cc1cc(C2=CSC(c3cc(Cl)cc(Cl)c3)(C(F)(F)F)C2)ccc1C(=O)NC1CCC1 (stereo not drawn) [Compound A1, N-cyclobutyl-4-[2-(3,5-dichlorophenyl)-2-(trifluoromethyl)-3H-thiophen-4-yl]-2-methyl-benzamide]
≥ 80%: mortality at 200 ppm [1] | mortality at 200 ppm [2] | mortality at 200 ppm [3] | mortality at 200 ppm [4] | mortality at 50 ppm [5] | percent control (mortality, anti-feedant effect or growth inhibition) at 200 ppm [6] | mortality at 200 ppm [7]

Cc1cc(C2=CSC(c3cc(Cl)cc(Cl)c3)(C(F)(F)F)C2)ccc1C(=O)NCC(F)(F)F (stereo not drawn) [Compound A2, 4-[2-(3,5-dichlorophenyl)-2-(trifluoromethyl)-3H-thiophen-4-yl]-2-methyl-N-(2,2,2-trifluoroethyl)benzamide]
≥ 80%: mortality at 200 ppm [1] | mortality at 200 ppm [2] | mortality at 200 ppm [3] | mortality at 200 ppm [4] | mortality at 50 ppm [5] | percent control (mortality, anti-feedant effect or growth inhibition) at 200 ppm [6] | mortality at 200 ppm [7]

Cc1cc(C2=CSC(c3cc(Cl)cc(Cl)c3)(C(F)(F)F)C2)ccc1C(=O)NCC(=O)NCC(F)(F)F (stereo not drawn) [Compound A3, 4-[2-(3,5-dichlorophenyl)-2-(trifluoromethyl)-3H-thiophen-4-yl]-2-methyl-N-[2-oxo-2-(2,2,2-trifluoroethylamino)ethyl]benzamide]
≥ 80%: mortality at 200 ppm [1] | mortality at 200 ppm [2] | mortality at 200 ppm [3] | mortality at 200 ppm [4] | mortality at 50 ppm [5] | percent control (mortality, anti-feedant effect or growth inhibition) at 200 ppm [6] | mortality at 200 ppm [7]

Cc1cc(C2=CSC(c3cc(Cl)cc(Cl)c3)(C(F)(F)F)C2)ccc1C(=O)NC1CS(=O)(=O)C1 (stereo not drawn) [Compound A4, 4-[2-(3,5-dichlorophenyl)-2-(trifluoromethyl)-3H-thiophen-4-yl]-N-(1,1-dioxothietan-3-yl)-2-methyl-benzamide]
≥ 80%: mortality at 200 ppm [1] | mortality at 200 ppm [2] | mortality at 200 ppm [3] | mortality at 200 ppm [4] | mortality at 50 ppm [5] | percent control (mortality, anti-feedant effect or growth inhibition) at 200 ppm [6] | mortality at 200 ppm [7]

Cc1cc(C2=CSC(c3cc(Cl)cc(Cl)c3)(C(F)(F)F)C2)ccc1C(=O)NC1CSC1 (stereo not drawn) [Compound A5, 4-[2-(3,5-dichlorophenyl)-2-(trifluoromethyl)-3H-thiophen-4-yl]-2-methyl-N-(thietan-3-yl)benzamide]
≥ 80%: mortality at 200 ppm [1] | mortality at 200 ppm [2] | mortality at 200 ppm [3] | mortality at 200 ppm [4] | mortality at 50 ppm [5] | percent control (mortality, anti-feedant effect or growth inhibition) at 200 ppm [6] | mortality at 200 ppm [7]

Cc1cc(C2=CSC(c3cc(Cl)cc(Cl)c3)(C(F)(F)F)C2)ccc1C(N)=O (stereo not drawn) [Compound A6, 4-[2-(3,5-dichlorophenyl)-2-(trifluoromethyl)-3H-thiophen-4-yl]-2-methyl-benzamide]
≥ 80%: mortality at 200 ppm [1] | mortality at 200 ppm [3] | percent control (mortality, anti-feedant effect or growth inhibition) at 200 ppm [6] | mortality at 200 ppm [7]

Cc1cc(C2=CSC(c3cc(Cl)cc(Cl)c3)(C(F)(F)F)C2)ccc1C(=O)N[C@H]1C[S@@+]([O-])C1 (stereo partly drawn) [Compound A7, 4-[2-(3,5-dichlorophenyl)-2-(trifluoromethyl)-3H-thiophen-4-yl]-2-methyl-N-(1-oxidothietan-1-ium-3-yl)benzamide]
≥ 80%: mortality at 200 ppm [1] | mortality at 200 ppm [2] | mortality at 200 ppm [3] | mortality at 200 ppm [4] | mortality at 50 ppm [5] | percent control (mortality, anti-feedant effect or growth inhibition) at 200 ppm [6] | mortality at 200 ppm [7]

Cc1cc(C2=CSC(c3cc(Cl)cc(Cl)c3)(C(F)(F)F)C2)ccc1C(=O)NCc1ccccn1 (stereo not drawn) [Compound A8, 4-[2-(3,5-dichlorophenyl)-2-(trifluoromethyl)-3H-thiophen-4-yl]-2-methyl-N-(2-pyridylmethyl)benzamide]
≥ 80%: mortality at 200 ppm [1] | mortality at 200 ppm [2] | mortality at 200 ppm [3] | mortality at 200 ppm [4] | percent control (mortality, anti-feedant effect or growth inhibition) at 200 ppm [6] | mortality at 200 ppm [7]

CCN1OC[C@@H](NC(=O)c2ccc(C3=CSC(c4cc(Cl)cc(Cl)c4)(C(F)(F)F)C3)cc2C)C1=O (stereo partly drawn) [Compound A9, 4-[2-(3,5-dichlorophenyl)-2-(trifluoromethyl)-3H-thiophen-4-yl]-N-[(4R)-2-ethyl-3-oxo-isoxazolidin-4-yl]-2-methyl-benzamide]
≥ 80%: mortality at 200 ppm [1] | mortality at 200 ppm [2] | mortality at 200 ppm [3] | mortality at 200 ppm [4] | mortality at 50 ppm [5] | percent control (mortality, anti-feedant effect or growth inhibition) at 200 ppm [6] | mortality at 200 ppm [7]

CON/C=N/C(=O)c1ccc(C2=CSC(c3cc(Cl)cc(Cl)c3)(C(F)(F)F)C2)cc1C (stereo not drawn) [Compound A10, (NE)-4-[2-(3,5-dichlorophenyl)-2-(trifluoromethyl)-3H-thiophen-4-yl]-N-[(methoxyamino)methylene]-2-methyl-benzamide]
≥ 80%: mortality at 200 ppm [1] | mortality at 200 ppm [2] | mortality at 200 ppm [3] | percent control (mortality, anti-feedant effect or growth inhibition) at 200 ppm [6] | mortality at 200 ppm [7]

Cc1cc(C2=C[S+]([O-])C(c3cc(Cl)cc(Cl)c3)(C(F)(F)F)C2)ccc1C(=O)NCC(F)(F)F (stereo not drawn) [Compound B1, 4-[2-(3,5-dichlorophenyl)-1-oxido-2-(trifluoromethyl)-3H-thiophen-1-ium-4-yl]-2-methyl-N-(2,2,2-trifluoroethyl)benzamide]
≥ 80%: mortality at 200 ppm [1] | percent control (mortality, anti-feedant effect or growth inhibition) at 200 ppm [6] | mortality at 200 ppm [7]

Cc1cc(C2=CS(=O)(=O)C(c3cc(Cl)cc(Cl)c3)(C(F)(F)F)C2)ccc1C(=O)NCC(F)(F)F (stereo not drawn) [Compound B2, 4-[2-(3,5-dichlorophenyl)-1,1-dioxo-2-(trifluoromethyl)-3H-thiophen-4-yl]-2-methyl-N-(2,2,2-trifluoroethyl)benzamide]
≥ 80%: mortality at 200 ppm [1] | mortality at 200 ppm [3] | percent control (mortality, anti-feedant effect or growth inhibition) at 200 ppm [6] | mortality at 200 ppm [7]

N#Cc1cc(C2=CSC(c3cc(Cl)c(Cl)c(Cl)c3)(C(F)(F)F)C2)ccc1-n1cncn1 (stereo not drawn) [Compound C1, 2-(1,2,4-triazol-1-yl)-5-[2-(3,4,5-trichlorophenyl)-2-(trifluoromethyl)-3H-thiophen-4-yl]benzonitrile]
≥ 80%: mortality at 200 ppm [1] | mortality at 200 ppm [3] | percent control (mortality, anti-feedant effect or growth inhibition) at 200 ppm [6] | mortality at 200 ppm [7]
